According to ChEMBL document CHEMBL1201862, “PubChem BioAssay data set” (2004):
Activity calls are given as the source filed them.

How the values were obtained:
[1] = molecular target: T1, Calpain-2 catalytic subunit (Sus scrofa, UniProt P43367); test: m-calpain protease blockers, concentration series – biochemical, fluorogenic peptide substrate, dose response (AID 1420); assay type: functional
T1 sequence (P43367 whole entry): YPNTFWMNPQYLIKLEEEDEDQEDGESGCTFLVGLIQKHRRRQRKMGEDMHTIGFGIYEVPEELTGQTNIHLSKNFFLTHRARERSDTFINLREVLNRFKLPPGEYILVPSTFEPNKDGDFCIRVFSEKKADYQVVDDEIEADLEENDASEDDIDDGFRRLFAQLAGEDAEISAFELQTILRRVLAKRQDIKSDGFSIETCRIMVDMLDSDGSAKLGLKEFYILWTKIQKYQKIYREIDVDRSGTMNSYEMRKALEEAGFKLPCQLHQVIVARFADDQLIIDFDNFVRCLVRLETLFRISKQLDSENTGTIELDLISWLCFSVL

Prothrombin = Prothrombin (Homo sapiens, UniProt P00734); test: Thrombin 1536 HTS Dose Response Confirmation. [Related pubchem assays: 1046 (Thrombin 1536 HTS; hits were confirmed in this assay)]; assay type: functional
[2] = molecular target: Induced myeloid leukemia cell differentiation protein Mcl-1 (Homo sapiens, UniProt Q07820); assay type: functional
BJ [3] = test: cells; assay type: functional, cell-based; conditions: Homo sapiens
BJ [4] = test: BJ-TERT fibroblast viability loss – cell-based, RAS-independent, luminescence, dose response (AID 1933); assay type: functional; conditions: Homo sapiens
[5] = DRD fibroblast viability loss – cell-based, non-viral oncogenic, luminescence, dose response (AID 1934); assay type: functional; conditions: Homo sapiens
BJ [6] = test: BJ-TERT-LT-ST fibroblast viability loss – cell-based, RAS-independent, luminescence, dose response (AID 1935); assay type: functional; conditions: Homo sapiens;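 also: BJ fibroblasts immortalized with TERT plus LT and ST oncogenes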
Cytochrome P450 2C19 = Cytochrome P450 2C19 (Homo sapiens, UniProt P33261); test: Cytochrome panel assay with activity outcomes. Panel member name: p450-cyp2c19 Compounds with AC50 equal or less than 10 uM are considered active; assay type: functional; conditions: read-out: AC50
Caspase-3 = molecular target: T2, Caspase-3 (Homo sapiens, UniProt P42574); assay type: functional;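 also: Dose-response selectivity test against caspase-3 for candidate inhibitors of sentrin-specific proteases (SENPs)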
T2 sequence (P42574 whole entry): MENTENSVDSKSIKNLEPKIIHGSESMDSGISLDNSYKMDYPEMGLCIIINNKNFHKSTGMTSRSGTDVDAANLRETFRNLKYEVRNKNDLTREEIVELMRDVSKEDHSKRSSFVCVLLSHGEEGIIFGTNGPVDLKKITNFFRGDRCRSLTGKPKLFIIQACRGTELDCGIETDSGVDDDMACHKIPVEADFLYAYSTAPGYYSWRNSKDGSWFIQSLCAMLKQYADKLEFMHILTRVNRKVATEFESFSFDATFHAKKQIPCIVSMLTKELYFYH

[7] = viability of PTEN-deleted HCT116 cells – cell-based, HCT116 PTEN knockout, dose response (AID 1047); assay type: functional;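 also: HCT116 colon tumor cells with PTEN knocked out; cells exposed to compound for 60 hours before readout; potency for loss of cell viability measured by luminescence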
[8] = molecular target: T3, Sentrin-specific protease 8 (Homo sapiens, UniProt Q96LD8); assay type: functional;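 also: luminescence read-out of SENP8 inhibition, dose-response confirmation following an ultra-high-throughput screen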
T3 sequence (Q96LD8 whole entry): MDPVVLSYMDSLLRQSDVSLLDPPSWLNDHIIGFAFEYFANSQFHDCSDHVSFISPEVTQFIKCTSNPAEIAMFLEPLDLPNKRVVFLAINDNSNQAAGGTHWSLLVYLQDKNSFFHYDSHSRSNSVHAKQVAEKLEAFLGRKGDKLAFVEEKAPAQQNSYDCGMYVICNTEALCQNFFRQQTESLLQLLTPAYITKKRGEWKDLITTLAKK

[9] = molecular target: T4, Sentrin-specific protease 7 (Homo sapiens, UniProt Q9BQF6); assay type: functional;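 also: Luminescence-based dose-response confirmation of ultra-high-throughput screening hits, measuring inhibition of SENP7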
T4 sequence (Q9BQF6 whole entry): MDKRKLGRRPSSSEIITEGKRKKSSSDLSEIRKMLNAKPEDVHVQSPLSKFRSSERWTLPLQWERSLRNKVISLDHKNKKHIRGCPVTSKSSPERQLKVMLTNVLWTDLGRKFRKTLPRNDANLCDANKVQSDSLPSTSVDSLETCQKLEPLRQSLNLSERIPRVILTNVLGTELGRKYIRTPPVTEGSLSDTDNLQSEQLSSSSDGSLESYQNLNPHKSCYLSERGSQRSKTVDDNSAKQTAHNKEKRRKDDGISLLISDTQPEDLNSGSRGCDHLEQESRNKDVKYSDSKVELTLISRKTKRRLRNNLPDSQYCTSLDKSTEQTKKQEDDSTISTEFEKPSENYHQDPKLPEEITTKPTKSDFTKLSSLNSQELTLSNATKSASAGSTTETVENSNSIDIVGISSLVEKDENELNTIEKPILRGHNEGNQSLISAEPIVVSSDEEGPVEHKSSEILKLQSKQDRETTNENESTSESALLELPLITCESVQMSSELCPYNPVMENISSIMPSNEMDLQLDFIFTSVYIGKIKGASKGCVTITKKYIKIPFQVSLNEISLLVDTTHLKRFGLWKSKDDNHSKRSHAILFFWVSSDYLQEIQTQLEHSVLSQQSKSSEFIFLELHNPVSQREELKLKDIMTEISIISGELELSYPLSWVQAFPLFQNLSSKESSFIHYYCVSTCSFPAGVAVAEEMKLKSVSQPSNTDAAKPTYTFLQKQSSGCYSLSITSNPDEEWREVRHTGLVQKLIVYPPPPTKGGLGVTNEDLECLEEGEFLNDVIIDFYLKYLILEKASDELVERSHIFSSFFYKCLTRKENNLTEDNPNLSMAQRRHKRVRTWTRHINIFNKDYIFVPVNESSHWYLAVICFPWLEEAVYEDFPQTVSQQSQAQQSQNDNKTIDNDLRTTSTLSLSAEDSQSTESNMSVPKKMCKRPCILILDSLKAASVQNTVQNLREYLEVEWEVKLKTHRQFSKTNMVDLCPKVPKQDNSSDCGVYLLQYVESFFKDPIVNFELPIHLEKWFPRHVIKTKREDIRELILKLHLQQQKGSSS

[10] = molecular target: T5, Sentrin-specific protease 6 (Homo sapiens, UniProt Q9GZR1); assay type: functional;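 also: Luminescence-based dose-response confirmatory assay of SENP6 inhibition, following up an ultra-high-throughput screen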
T5 sequence (Q9GZR1 whole entry): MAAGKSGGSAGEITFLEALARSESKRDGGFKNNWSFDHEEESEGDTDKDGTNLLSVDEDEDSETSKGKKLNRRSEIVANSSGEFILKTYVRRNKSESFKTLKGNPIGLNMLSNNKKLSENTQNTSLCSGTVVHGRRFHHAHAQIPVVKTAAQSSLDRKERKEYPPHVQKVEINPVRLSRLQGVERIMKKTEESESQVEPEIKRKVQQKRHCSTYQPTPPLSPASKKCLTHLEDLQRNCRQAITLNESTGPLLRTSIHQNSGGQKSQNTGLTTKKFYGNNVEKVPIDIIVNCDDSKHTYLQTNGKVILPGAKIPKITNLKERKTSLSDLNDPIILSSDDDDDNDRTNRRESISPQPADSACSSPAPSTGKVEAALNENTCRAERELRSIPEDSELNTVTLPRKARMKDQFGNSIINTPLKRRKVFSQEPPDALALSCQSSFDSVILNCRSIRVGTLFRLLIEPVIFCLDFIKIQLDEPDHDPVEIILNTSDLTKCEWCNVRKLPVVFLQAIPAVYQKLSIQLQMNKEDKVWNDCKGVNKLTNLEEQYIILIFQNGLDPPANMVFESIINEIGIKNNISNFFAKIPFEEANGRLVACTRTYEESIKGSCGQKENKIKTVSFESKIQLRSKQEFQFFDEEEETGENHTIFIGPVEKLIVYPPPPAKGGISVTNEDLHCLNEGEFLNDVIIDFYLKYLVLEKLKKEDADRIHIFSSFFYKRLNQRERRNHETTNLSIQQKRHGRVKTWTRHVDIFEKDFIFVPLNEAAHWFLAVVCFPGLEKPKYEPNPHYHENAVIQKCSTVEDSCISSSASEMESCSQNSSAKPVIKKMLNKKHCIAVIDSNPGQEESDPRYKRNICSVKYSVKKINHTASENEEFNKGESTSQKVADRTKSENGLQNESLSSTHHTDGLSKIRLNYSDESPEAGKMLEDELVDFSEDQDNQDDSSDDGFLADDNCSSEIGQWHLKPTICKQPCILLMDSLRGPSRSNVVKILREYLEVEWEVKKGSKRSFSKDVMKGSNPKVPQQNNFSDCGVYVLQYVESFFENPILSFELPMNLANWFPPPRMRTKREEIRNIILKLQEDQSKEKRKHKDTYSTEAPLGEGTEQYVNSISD

[11] = viability of HCT116 lacking mutant beta-catenin – cell-based, human colon tumor, dose response (AID 1045); assay type: functional;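 also: HCT116 colon tumor cells with beta catenin knocked out; cells exposed to compound for 60 hours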

Induced myeloid leukemia cell differentiation protein Mcl-1, sequence (Q07820 whole entry): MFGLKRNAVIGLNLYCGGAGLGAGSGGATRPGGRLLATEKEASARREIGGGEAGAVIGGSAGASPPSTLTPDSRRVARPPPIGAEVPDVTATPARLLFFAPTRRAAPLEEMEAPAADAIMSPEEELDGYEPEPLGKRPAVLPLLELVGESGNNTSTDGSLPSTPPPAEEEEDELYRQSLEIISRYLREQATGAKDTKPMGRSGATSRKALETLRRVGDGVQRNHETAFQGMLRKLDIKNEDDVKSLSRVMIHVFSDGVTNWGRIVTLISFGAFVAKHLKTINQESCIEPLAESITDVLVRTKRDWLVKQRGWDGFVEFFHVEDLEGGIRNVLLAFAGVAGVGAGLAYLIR
Cytochrome P450 2C19, sequence (P33261 whole entry): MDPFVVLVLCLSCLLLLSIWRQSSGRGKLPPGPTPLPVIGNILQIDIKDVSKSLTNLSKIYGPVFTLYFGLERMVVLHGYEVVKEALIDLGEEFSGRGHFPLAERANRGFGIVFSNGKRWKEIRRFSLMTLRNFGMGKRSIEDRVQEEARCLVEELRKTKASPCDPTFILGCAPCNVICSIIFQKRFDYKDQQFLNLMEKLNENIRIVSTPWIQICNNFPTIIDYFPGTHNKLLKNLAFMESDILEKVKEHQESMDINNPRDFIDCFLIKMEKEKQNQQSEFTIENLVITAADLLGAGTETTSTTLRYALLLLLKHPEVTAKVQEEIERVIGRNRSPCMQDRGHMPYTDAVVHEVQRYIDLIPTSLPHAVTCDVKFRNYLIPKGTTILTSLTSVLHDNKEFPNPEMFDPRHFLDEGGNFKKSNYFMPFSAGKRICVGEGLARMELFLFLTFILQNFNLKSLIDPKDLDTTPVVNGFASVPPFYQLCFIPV

In the case of Cc1ccc(NC(S)=NC(C)CCc2ccccc2)cc1C (stereo unspecified), the IC50 [1] is reported as 17.3 µM (not active).

With COc1cccc(NC(=S)N(CCCN2CCCC2)Cc2ccco2)c1 the IC50 (Prothrombin) was > 50 µM (inconclusive).

For Cn1c(N)c(C(=O)COC(=O)C2CCC(C(C)(C)C)CC2)c(=O)n(C)c1=O (stereo unspecified), the IC50 [1] was 10.4 µM (active).

In the case of C/C(=N\OCC(=O)NC12CC3CC(CC(C3)C1)C2)c1cc2ccccc2o1, the IC50 [1] is reported as 8.83 µM (not active).

For CC(=O)n1nc(-c2ccc(C)cc2)nc1NCc1ccc(F)cc1, the IC50 (Prothrombin) was 0.373 µM (active).

For CC(C)C(=O)n1nc(-c2cccnc2)nc1NCc1cccs1, the IC50 (Prothrombin) was 0.006 µM (active).

For CCc1nn2c(=O)cc(COc3ccc(/C=C4\C(=N)N5N=C(C)SC5=NC4=O)cc3)nc2s1, the IC50 [2] was 4.66 µM (active).

For COc1ccc(/C=N/Nc2nncc3ccccc23)cc1, the EC50 (BJ [3]) was 9.05 µM (active), the EC50 (BJ [4]) was 8.72 µM (active) and the EC50 [5] was 7.41 µM (active). For the same molecule, the EC50 (BJ [6]) was 18.6 µM (active).

For Oc1ccccc1C1Nc2cccc3cccc(c23)N1, the IC50 [2] was 3.25 µM (active) and the AC50 (Cytochrome P450 2C19) was 3.16 µM (inconclusive).

For Oc1[nH]c2ccccc2c1N=Nc1nc2ccccc2s1, the IC50 (Caspase-3) was 27.6 µM (active), the IC50 [2] was 3.84 µM (active) and the EC50 [7] was 26.5 µM (active). For the same molecule, the IC50 [8] was > 100 µM (inactive), the IC50 [9] was 4.3 µM (active) and the IC50 [10] was 66.4 µM (active). For the same molecule, the EC50 [11] was 32.3 µM (active).

With Cc1ccccc1NC(=S)NCCC(c1ccccc1)c1ccccc1 the IC50 [1] was 2.48 µM (not active).
